For 5 molecules, TGI results are on record in PubChem BioAssay (NCI).

Some test systems named below: KM12 colon; NCI-H522 lung; HCT-15 colon; OVCAR-8 ovarian; SNB-19 CNS; M14 melanoma; ACHN renal; MCF7 breast; SF-268 CNS; SK-MEL-5 melanoma.
Assay in all cases: growth of human tumour cells (NCI), 48 h

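Compound exposure: 48 hours, 5 concentrations, 96-well plates. The concentration for full growth arrest is given as TGI.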

For `c1ccc(CCN(Cc2nc3ccccc3[nH]2)Cc2nc3ccccc3[nH]2)cc1`, the TGI with KM12 colon is 27.3 µM; in the assay with NCI-H522 lung, 49.4 µM; in the assay with HCT-15 colon, 22.1 µM; with OVCAR-8 ovarian, 18.6 µM; in the assay on SNB-19 CNS it was more than 31.6 µM; in the assay on M14 melanoma, 26.7 µM. Also, the TGI in the assay on ACHN renal was 22.4 µM; with MCF7 breast it was 35.1 µM; with SF-268 CNS it was 33.6 µM; in the assay on SK-MEL-5 melanoma it was 16.3 µM.
In the case of `O=C1/C(=C\c2cccc(Oc3ccccc3)c2)SC(c2ccccc2)N1c1ccc(Cl)cc1` (stereo not given), the TGI in the assay on KM12 colon is more than 100 µM; in the assay with NCI-H522 lung, 96.9 µM; in the assay on HCT-15 colon, more than 100 µM; in the assay on OVCAR-8 ovarian, more than 100 µM; in the assay on SNB-19 CNS, more than 100 µM; in the assay with M14 melanoma, more than 100 µM. For the same molecule, the TGI in the assay on ACHN renal was more than 100 µM; in the assay with MCF7 breast it was more than 100 µM; in the assay with SF-268 CNS, more than 100 µM; in the assay on SK-MEL-5 melanoma, more than 41.7 µM.
With `CC(C)/C=N\n1c(N)c(C#N)c(C#N)c1C(C)C`, the TGI with KM12 colon is more than 100 µM; in the assay with NCI-H522 lung, more than 100 µM; in the assay with HCT-15 colon it was more than 100 µM; in the assay on OVCAR-8 ovarian, 63.7 µM; with SNB-19 CNS it was more than 100 µM; in the assay on M14 melanoma, more than 100 µM. Besides, the TGI was 91.1 µM in the assay on ACHN renal, more than 100 µM in the assay with MCF7 breast, more than 100 µM in the assay on SF-268 CNS and 34.1 µM in the assay on SK-MEL-5 melanoma.
For the molecule `CSc1cc(Cl)c(C)cc1S(=O)(=O)NC(=O)NNc1ccc(F)c(Cl)c1`, the TGI in the assay with KM12 colon, in the assay on NCI-H522 lung, with HCT-15 colon, in the assay with OVCAR-8 ovarian, with SNB-19 CNS and in the assay with M14 melanoma was more than 100 µM in each case. For the same molecule, the TGI in the assay on ACHN renal, in the assay with MCF7 breast, in the assay with SF-268 CNS and with SK-MEL-5 melanoma was more than 100 µM each time.
Turning to `Cc1ccc(S(=O)(=O)N2CCCCN(S(=O)(=O)c3ccc(C)cc3)Cc3ccccc3OCCOCCOc3c4cccc3Cc3cccc5c3OCCOCCOc3ccccc3CN(S(=O)(=O)c3ccc(C)cc3)CCCN(S(=O)(=O)c3ccc(C)cc3)Cc3ccccc3OCCOCCOc3c(cccc3C4)Cc3cccc(c3OCCOCCOc3ccccc3C2)C5)cc1`, the TGI with KM12 colon, with NCI-H522 lung, with HCT-15 colon, in the assay on OVCAR-8 ovarian, with SNB-19 CNS and with M14 melanoma was more than 100 µM each time. Besides, the TGI in the assay on ACHN renal, in the assay with MCF7 breast, in the assay with SF-268 CNS and in the assay with SK-MEL-5 melanoma was more than 100 µM each time.
